Where “and” joins values, the source holds several entries; their conditions need not be identical. Identical values can stand only once.

One series concerns the target T1, YSK4 (Homo sapiens, UniProt Q56UN5).
T1 construct: purchased DiscoveRx
T1 sequence (Q56UN5 1-1328): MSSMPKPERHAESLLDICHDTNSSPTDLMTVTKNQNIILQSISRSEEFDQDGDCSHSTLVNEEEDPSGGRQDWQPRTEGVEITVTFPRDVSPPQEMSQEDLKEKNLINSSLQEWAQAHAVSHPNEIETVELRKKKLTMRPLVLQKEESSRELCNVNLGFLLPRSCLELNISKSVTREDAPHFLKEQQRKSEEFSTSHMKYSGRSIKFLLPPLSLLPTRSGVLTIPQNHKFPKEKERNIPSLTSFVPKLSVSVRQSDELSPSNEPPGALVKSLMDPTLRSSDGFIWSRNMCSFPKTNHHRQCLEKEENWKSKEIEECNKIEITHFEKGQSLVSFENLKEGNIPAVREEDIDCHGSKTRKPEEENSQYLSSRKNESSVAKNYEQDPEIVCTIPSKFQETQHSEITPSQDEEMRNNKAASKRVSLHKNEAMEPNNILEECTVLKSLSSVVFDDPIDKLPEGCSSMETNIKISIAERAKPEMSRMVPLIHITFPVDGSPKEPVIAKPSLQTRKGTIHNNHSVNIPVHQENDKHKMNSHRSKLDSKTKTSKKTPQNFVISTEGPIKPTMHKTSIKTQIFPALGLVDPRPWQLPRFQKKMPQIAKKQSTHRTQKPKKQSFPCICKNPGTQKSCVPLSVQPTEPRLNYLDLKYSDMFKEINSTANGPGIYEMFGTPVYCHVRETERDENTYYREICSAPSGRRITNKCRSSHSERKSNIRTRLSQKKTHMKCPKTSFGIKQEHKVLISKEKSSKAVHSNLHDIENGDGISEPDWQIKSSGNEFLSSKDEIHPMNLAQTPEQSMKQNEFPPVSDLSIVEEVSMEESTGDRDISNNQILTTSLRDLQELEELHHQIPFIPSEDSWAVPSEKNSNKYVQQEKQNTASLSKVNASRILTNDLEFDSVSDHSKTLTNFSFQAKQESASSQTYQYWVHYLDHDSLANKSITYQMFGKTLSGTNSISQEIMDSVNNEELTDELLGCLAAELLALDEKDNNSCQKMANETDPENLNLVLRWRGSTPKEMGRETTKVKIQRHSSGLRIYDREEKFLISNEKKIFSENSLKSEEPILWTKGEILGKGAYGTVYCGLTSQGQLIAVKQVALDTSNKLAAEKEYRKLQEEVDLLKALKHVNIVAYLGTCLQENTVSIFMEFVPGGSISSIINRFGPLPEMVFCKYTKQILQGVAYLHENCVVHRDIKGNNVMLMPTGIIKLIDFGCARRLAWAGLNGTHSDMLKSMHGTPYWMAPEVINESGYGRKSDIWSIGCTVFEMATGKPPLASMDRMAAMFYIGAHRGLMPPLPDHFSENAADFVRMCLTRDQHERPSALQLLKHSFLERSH
Nature of the series: KINOMEscan active-site competitive binding assay. Particulars: slash = two separate measurements.

Series [1] has as its system lung tumor cell lines expressing wt or mutant DDR2. Nature of the series: Preliminary in vitro proliferation, lung tumor cell lines expressing wt or mutant DDR2. It counts as cell-based. Particulars: unpubl. data.
The target in another series is T2, HIPK4 (Homo sapiens, UniProt Q8NE63).
T2 construct: purchased DiscoveRx (KINOMEscan service)
T2 sequence (Q8NE63 1-616): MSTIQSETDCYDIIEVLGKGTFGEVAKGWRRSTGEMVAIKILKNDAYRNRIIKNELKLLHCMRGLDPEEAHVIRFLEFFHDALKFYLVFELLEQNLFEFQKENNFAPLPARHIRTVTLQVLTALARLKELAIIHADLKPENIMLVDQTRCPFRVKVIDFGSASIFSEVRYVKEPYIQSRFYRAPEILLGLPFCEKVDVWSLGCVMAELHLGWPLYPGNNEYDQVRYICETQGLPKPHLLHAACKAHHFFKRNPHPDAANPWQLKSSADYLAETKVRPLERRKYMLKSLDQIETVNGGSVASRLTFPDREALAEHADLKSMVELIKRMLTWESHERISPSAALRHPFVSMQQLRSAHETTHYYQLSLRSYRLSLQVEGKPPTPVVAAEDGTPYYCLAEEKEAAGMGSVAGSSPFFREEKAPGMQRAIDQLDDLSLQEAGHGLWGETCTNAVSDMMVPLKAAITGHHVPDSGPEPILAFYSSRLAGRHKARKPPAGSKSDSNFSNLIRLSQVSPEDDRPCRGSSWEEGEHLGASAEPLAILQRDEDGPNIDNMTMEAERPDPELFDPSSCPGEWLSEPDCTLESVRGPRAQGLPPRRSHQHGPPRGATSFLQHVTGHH
Nature of the series: KINOMEscan active-site competitive binding assay. Particulars: slash = two separate measurements.

Series [2] in a line: Plasma protein binding in vitro (Transil), mouse plasma. It counts as in vitro ADME. The procedure: A radioactivity analysis was performed by liquid scintillation counting. […] All compounds were tested for stability at the incubation conditions used.
A further series has as its target T3, MUSK (Homo sapiens, UniProt O15146).
T3 construct: purchased DiscoveRx (KINOMEscan service)
T3 sequence (O15146 24-869): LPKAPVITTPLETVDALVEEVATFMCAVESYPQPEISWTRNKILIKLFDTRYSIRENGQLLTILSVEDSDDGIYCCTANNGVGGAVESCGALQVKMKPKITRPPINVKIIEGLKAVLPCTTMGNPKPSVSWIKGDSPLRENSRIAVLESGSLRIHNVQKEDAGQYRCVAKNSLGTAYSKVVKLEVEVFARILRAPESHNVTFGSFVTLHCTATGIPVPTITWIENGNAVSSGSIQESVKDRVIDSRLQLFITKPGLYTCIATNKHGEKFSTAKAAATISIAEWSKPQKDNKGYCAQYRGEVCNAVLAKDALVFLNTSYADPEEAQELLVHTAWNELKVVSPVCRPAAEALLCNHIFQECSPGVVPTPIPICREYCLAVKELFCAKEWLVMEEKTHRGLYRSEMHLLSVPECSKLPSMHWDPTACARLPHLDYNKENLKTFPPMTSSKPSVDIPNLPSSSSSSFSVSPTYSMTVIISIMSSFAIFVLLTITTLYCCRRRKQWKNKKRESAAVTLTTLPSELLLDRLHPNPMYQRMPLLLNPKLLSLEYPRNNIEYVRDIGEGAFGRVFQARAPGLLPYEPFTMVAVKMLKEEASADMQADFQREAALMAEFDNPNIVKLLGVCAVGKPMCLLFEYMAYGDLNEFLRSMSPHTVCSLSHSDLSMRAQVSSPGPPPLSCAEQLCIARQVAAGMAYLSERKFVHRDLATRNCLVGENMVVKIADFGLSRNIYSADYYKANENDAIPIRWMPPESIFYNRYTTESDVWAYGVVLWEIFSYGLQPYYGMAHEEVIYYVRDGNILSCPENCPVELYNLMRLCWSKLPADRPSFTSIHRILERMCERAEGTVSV
Put plainly: KINOMEscan active-site competitive binding assay. Particulars: slash = two separate measurements.

Setting [3] is: mouse (CD‐1), male, plasma, arithmetic mean ± SD.

By Kd is commonly meant the free concentration of one partner at which half of the binding sites on the other are occupied at equilibrium, for simple one-to-one binding. Take `CNC(=O)c1cc(Oc2ccc(NC(=O)Nc3ccc(Cl)c(C(F)(F)F)c3)c(F)c2)cc[n+]1[O-]` [M‐2]: the values for the Kd at YSK4, on HIPK4 and at MUSK were 55 nM, 15 nM and 140 nM, respectively. Moreover, in series [1], the Inhibition of proliferation result is on record as “only moderate inhibition”. Besides, in series [2] (setting [3]), the “Unbound fraction (%)” value came out at 0.888 ± 0.033%. Also, the “Proportion of protein‐bound drug” value in series [2] (murine plasma) is “more than 99%”. Further, in series [2] (murine plasma), the “Unbound fraction, fold higher than that of regorafenib” value is “approximately 1.5 fold”.

In the case of `NC(=O)c1cc(Oc2ccc(NC(=O)Nc3ccc(Cl)c(C(F)(F)F)c3)c(F)c2)cc[n+]1[O-]` [M‐5], the Kd at YSK4 is 70 nM; at HIPK4, 26 nM; on MUSK, 140 nM. In series [1], the Inhibition of proliferation entry is recorded as “only moderate inhibition”. Besides, the “Unbound fraction (%)” value in series [2] (setting [3]) is recorded as 0.412 ± 0.041%. The “Proportion of protein‐bound drug” value in series [2] (murine plasma) is “more than 99%”.

By fraction unbound is commonly meant the share of the substance not bound to proteins or other matrix. With `CNC(=O)c1cc(Oc2ccc(NC(=O)Nc3ccc(Cl)c(C(F)(F)F)c3)c(F)c2)ccn1` [Regorafenib, reference compound], the Kd on YSK4 is 38 nM and 94 nM; on HIPK4, 6.9 nM and 4.5 nM; at MUSK, 68 nM and 67 nM. The Inhibition of proliferation entry in series [1] is given as “only moderate inhibition”. Also, the fraction unbound in series [2] (male, CD-1, mouse, plasma, mouse (CD‐1), arithmetic mean ± SD) is approximately 0.006. In addition, the “Unbound fraction (%)” value in series [2] (setting [3]) is recorded as 0.575 ± 0.039%. The “Proportion of protein‐bound drug” value in series [2] (murine plasma) is listed as “more than 99%”.

Source of the values: publication PMC5119973 (Cancer Medicine, 2016).
